Data published in patent publication US20230192720A1, “MACROCYCLIC COMPOUNDS” (ZENO MANAGEMENT, INC., priority 2019, published 2023).

How the values were obtained:
[1] = target: Mcl-1 (Homo sapiens, UniProt Q07820); assay: Mcl-1 Homogeneous Time Resolved Fluorescence (HTRF) binding assay
[2] = tested on: NCI-H929 cells; assay: NCI-H929 cell proliferation assay (CellTiter-Glo); assay type: cell-based; details: 72 h compound treatment
Experimental: NCI-H929 Cell Proliferation Assay
Cell proliferation was measured using the CellTiter-Glo® Luminescent Cell Viability Assay. The assay involved the addition of a single reagent (CellTiter-Glo® Reagent) directly to cells cultured in serum-supplemented medium. NCI-H929 (ATCC CRL-9068) cells were cultured according to ATCC recommendations and were seeded at 3,000 cells per well.
Each compound evaluated was prepared as a DMSO stock solution (10 mM). Compounds were tested in duplicate on each plate, with a 10-point serial dilution curve (1:3 dilution). Compound treatment ([…]) was added from the compound dilution plate to the cell plate. The highest compound concentration was 10 μM (final), with a 0.1% final DMSO concentration. Plates were then incubated at 37° C., 5% CO2. After 72 h of compound treatment, cell plates were equilibrated at rt for approximately 30 mins. An equi-volume amount of CellTiter-Glo® Reagent (40 μL) was added to each well. Plates were mixed for 2 mins on an orbital shaker to induce cell lysis and then incubated at rt for 10 mins to stabilize the luminescent signal. Luminescence was recorded using an Envision plate reader according to CellTiter-Glo protocol. IC50 of each compound was calculated using GraphPad Prism by nonlinear regression analysis.

Mcl-1, sequence (Q07820 whole entry): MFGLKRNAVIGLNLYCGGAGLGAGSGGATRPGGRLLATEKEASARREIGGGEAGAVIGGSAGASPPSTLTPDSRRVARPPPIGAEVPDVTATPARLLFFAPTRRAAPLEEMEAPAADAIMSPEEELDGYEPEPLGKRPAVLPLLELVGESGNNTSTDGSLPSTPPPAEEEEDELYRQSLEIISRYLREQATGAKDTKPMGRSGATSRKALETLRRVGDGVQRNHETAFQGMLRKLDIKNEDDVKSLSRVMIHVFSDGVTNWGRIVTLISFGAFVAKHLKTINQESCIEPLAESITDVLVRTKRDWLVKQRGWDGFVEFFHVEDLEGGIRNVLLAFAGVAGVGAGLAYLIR

| Structure (SMILES) | IC50 [1] [µM] | IC50 ([2]; Homo sapiens, NCI-H929, 72 h) [µM] | IC50 [2] [µM] |
| --- | --- | --- | --- |
| Cn1nc2cc1CSc1cc3c(c(c1)OCCCc1c(C(=O)O)n(C)c4c(c(Cl)ccc14)-c1c(nn4c1CCCC4)CSC2)NCCC3 (single isomer, unassigned) [Example 2A, (Ra)-(+)-(Z)-1^6-chloro-1^1,6^1-dimethyl-2^4,2^5,2^6,2^7,9^1,9^2,9^3,9^4-octahydro-1^1H,6^1H-10-oxa-4,8-dithia-9(6,8)-quinolina-2(3 ,2)-pyrazolo[1,5-a]pyridina-1(7 ,3)-indola-6(3,5)-pyrazolacyclotridecaphane-1^2-carboxylic acid] | < 0.01 | ≤ 0.1 | – |
| CO[C@H]1/C=C/C[C@H](C)[C@@H](C)S(=O)(=O)NC(=O)c2ccc3c(c2)N(C[C@@H]2CC[C@H]21)C[C@@]1(CCCc2cc(Cl)ccc21)CO3 [AMG176, reference compound] | – | 0.1 to 1 | – |
| CCn1nc(C)c2c1CSCc1cc(n(C)n1)CSc1cc3c(c(c1)OCCCc1c(C(=O)O)n(C)c4c-2c(Cl)ccc14)NCCC3 (atropisomer, axis not shown; (Sa)) [Example 14B, (Sa)-(−)-(Z)-1^6-Chloro-2^1-ethyl-1^1,2^3,6^1-trimethyl-9^1,9^2,9^3,9^4-tetrahydro-1^1H,2^1H,6^1H-10-oxa-4,8-dithia-9(6,8)-quinolina-1(7,3)-indola-2(4,5),6(3,5)-dipyrazolacyclotridecaphane-1^2-carboxylic acid] | – | – | ≥ 1 |
| CN1CCCc2cc3cc(c21)OCCCc1c(C(=O)O)n(C)c2c(c(Cl)ccc12)-c1c(nn2c1CCC2)CSCc1cc(n(C)n1)CS3 (atropisomer, axis not shown; (Ra)) [Example 13A, (Ra)-(+)-(Z)-1^6-Chloro-1^1,6^1,9^1-trimethyl-2^5,2^6,9^1,9^2,9^3,9^4-hexahydro-1^1H,2^4H,6^1H-10-oxa-4,8-dithia-9(6,8)-quinolina-1(7,3)-indola-2(3,2)-pyrrolo[1,2-b]pyrazola-6(3,5)-pyrazolacyclotridecaphane-1^2-carboxylic acid] | – | ≥ 1 | – |
| Cc1nn(C23CC(C2)C3)c2c1-c1c(F)ccc3c(c(C(=O)O)n(C)c13)CCCOc1cc(cc3c1NCCC3)SCc1cc(nn1C)CSC2 (atropisomer, axis not shown; (Ra)) [Example 10A, (Ra)-(+)-(Z)-2^1-(Bicyclo[1.1.1]pentan-1-yl)-1^6-fluoro-1^1,2^3,6^1-trimethyl-9^1,9^2,9^3,9^4-tetrahydro-1^1H,2^1H,6^1H-10-oxa-4,8-dithia-9(6,8)-quinolina-1(7,3)-indola-2(4,5),6(3,5)-dipyrazolacyclotridecaphane-1^2-carboxylic acid] | – | – | ≥ 1 |
| Cc1c2c(nn1C)CSCc1cc(n(C)n1)CSc1cc(c3ccccc3c1)OCCCc1c(C(=O)O)n(C)c3c-2c(Cl)ccc13 [AZD5991, reference compound] | – | ≤ 0.1 | – |

Continued, values first:

| IC50 [1] [µM] | IC50 ([2]; Homo sapiens, NCI-H929, 72 h) [µM] | IC50 [2] [µM] | Structure (SMILES) |
| --- | --- | --- | --- |
| – | – | ≥ 1 | CN1Cc2cc(n(C)n2)CCc2cc3c(c(c2)OCCCc2c(C(=O)O)n(C)c4c(c(Cl)ccc24)-c2c(nn4c2CCCC4)C1)NCCC3 (atropisomer, axis not shown; (Sa)) [Example 6B, (Sa)-(−)-(Z)-1^6-Chloro-1^1,6^1,4-trimethyl-2^4,2^5,2^6,2^7,9^1,9^2,9^3,9^4-octahydro-1^1H,6^1H-10-oxa-4-aza-9(6,8)-quinolina-2(3,2)-pyrazolo[1,5-a]pyridina-1(7,3)-indola-6(3,5)-pyrazolacyclotridecaphane-1^2-carboxylic acid] |
| – | – | ≥ 1 | CN1Cc2cc(n(C)n2)CCc2cc3c(c(c2)OCCCc2c(C(=O)O)n(C)c4c(c(Cl)ccc24)-c2c(nn4c2CCC4)C1)NCCC3 (atropisomer, axis not shown; (Sa)) [Example 5B, (Sa)-(−)-(Z)-1^6-Chloro-1^1,6^1,4-trimethyl-2^5,2^6,9^1,9^2,9^3,9^4-hexahydro-1^1H,2^4H,6^1H-10-oxa-4-aza-9(6,8)-quinolina-1(7,3)-indola-2(3,2)-pyrrolo[1,2-b]pyrazola-6(3,5)-pyrazolacyclotridecaphane-1^2-carboxylic acid] |
| – | – | ≥ 1 | CN1Cc2cc(n(C)n2)CSc2cc3c(c(c2)OCCCc2c(C(=O)O)n(C)c4c(c(Cl)ccc24)-c2c(nn4c2CCC4)C1)NCCC3 (atropisomer, axis not shown; (Ra)) [Example 3A, (Ra)-(+)-(Z)-1^6-Chloro-1^1,6^1,4-trimethyl-2^5,2^6,9^1,9^2,9^3,9^4-hexahydro-1^1H,2^4H,6^1H-10-oxa-8-thia-4-aza-9(6,8)-quinolina-1(7,3)-indola-2(3,2)-pyrrolo[1,2-b]pyrazola-6(3,5)-pyrazolacyclotridecaphane-1^2-carboxylic acid] |
| < 0.01 | ≤ 0.1 | – | Cn1nc2cc1CSc1cc3c(c(c1)OCCCc1c(C(=O)O)n(C)c4c(c(Cl)ccc14)-c1c(nn4c1CCC4)CSC2)NCCC3 (single isomer, unassigned) [Example 1A, (Ra)-(+)-(Z)-1^6-Chloro-1^1,6^1-dimethyl-2^5,2^6,9^1,9^2,9^3,9^4-hexahydro-1^1H,2^4H,6^1H-10-oxa-4,8-dithia-9(6,8)-quinolina-1(7,3)-indola-2(3,2)-pyrrolo[1,2-b]pyrazola-6(3,5)-pyrazolacyclotridecaphane-1^2-carboxylic acid] |
